Among the data in ChEMBL document CHEMBL1135456, “Inhibition of MIF bioactivity by rational design of pharmacological inhibitors of MIF tautomerase activity” (J Med Chem, 2002) are IC50 values, retold here.

Broadly, the IC50 is the concentration that inhibits the measured activity by half. A low value points to higher potency.

A value given as a limit tells only on which side of the number the result lay.

In the assay the target is T1, Macrophage migration inhibitory factor (Homo sapiens, UniProt P14174).
T1 sequence (P14174 whole entry): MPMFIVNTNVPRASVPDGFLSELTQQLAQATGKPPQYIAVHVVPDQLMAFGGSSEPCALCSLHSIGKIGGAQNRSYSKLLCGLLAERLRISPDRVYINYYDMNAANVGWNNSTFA
In words: Inhibition of human macrophage migration inhibitory factor tautomerase (MIF) activity.
In the case of `COC(=O)[C@@H](Cc1ccccc1)/N=C/c1ccc(O)cc1`, the IC50 was 50 µM.

For the compound `COC(=O)[C@H](CO)/N=C/c1ccc(O)cc1`, inhibition was half-maximal at 100 µM (IC50).

On to `COC(=O)[C@@H](Cc1ccc(O)cc1)/N=C/c1ccc(O)cc1`, for which the half-inhibitory concentration (IC50) came to 10 µM.

On to `COC(=O)[C@H](CC(C)C)/N=C/c1ccc(O)cc1`, for which the IC50 is > 100 µM.

In turn, `COC(=O)[C@H](CCSC)/N=C/c1ccc(O)cc1` came in with an IC50 of 100 µM.

As for `COC(=O)[C@H](C)/N=C/c1ccc(O)cc1`, the IC50 was > 100 µM.

In turn, `CC[C@H](/N=C/c1ccc(O)cc1)C(=O)OC` showed an IC50 of 70 µM.
